Assay results from patent US20100278849A1, “PROSTATIC ACID PHOSPHATASE ANTIGENS” (priority 2004, published 2010).
Values joined by “and” are separate entries in the source; they are usually repeats but may differ in a detail not shown here. Equal entries are not always repeated. “Also recorded” adds a separate entry of the source.

What was measured:
HLA-DRβ1*0401 = assay: Proliferation of splenocytes from immunised HLA-DR4 mice with peptide-pulsed BM-DC (tritiated thymidine); type: cell-based
Experimental: (§1) HLA-A2.1/K^b mice were immunised with an emulsion consisting of 100 μg of the putative class-I peptide epitope and 100 μg of non-specific class-II peptide derived from hepatitis B virus in 50% incomplete Freund's adjuvant (IFA). HLA-DR4- and HLA-DR1-transgenic mice were immunised twice at one week interval with 100 μg of class-II peptide emulsified in 50% incomplete Freund's adjuvant (IFA) and 50% PBS. All vaccine were delivered as a 100 μl intradermal bolus inoculum at the base of the tail.
(§2) 0DC were generated using a method adapted from Inaba et al (Inaba et al. 1992). Briefly, femurs and tibias were harvested aseptically from non-immunised DR1 or DR4 transgenic mice and placed in sterile PBS supplemented with 50 IU/ml penicillin, 50 μg/ml streptomycin, and 0.25 μg/ml fungizone. The marrow was flushed out of the bone using BM-DC media (RPMI 1640 medium supplemented with 2 mM glutamine, 5% FCS, 10 mM Hepes, 501M 2-ME, 50 μg/ml penicillin, 50 μg/ml streptomycin, 0.25 μg/ml fungisone and 10% of supernatant collected from X-63 cells). The cells were washed once in BM-DC media and plated in 24-well plates at 10^6/well in 1 ml DC media and incubated at 37° C. in a 5% CO2 humidified atmosphere. On days 2 and 4, the non-adherent cells (T cells, B cells, granulocytes) were removed, and the remaining cells were cultured in fresh DC medium. After 7-9 days, clusters of loosely adherent DC were dislodged and collected by gently pipetting, before being washed and seeded in 24-well plates at 0.5×10^6 cells/well in 1 ml DC media. Peptides were added at 1 μg/well and the plates were incubated at 37° C. 1 μg/ml of LPS was added after 5 hours, and the plates were incubated overnight at 37° C. in a 5% CO2 in air-humidified atmosphere.
(§3) After 6 days, the spleens from immunised animals were collected and the cells flushed out using T cell media (RPMI+10% FCS+20 mM HEPES buffer+50 μM 2-mercaptoethanol+50 U/ml penicillin/streptomycin+0.25 μg/ml fungizone). The remaining splenic tissue was digested using an enzyme cocktail (0.1 U/ml DNAase (Sigma)+1.6 mg/ml collagenase (Sigma)) for 1 hour at 37° C. The cell suspension obtained was pooled with the flushed cells, washed once, and the splenocytes were plated in 24 well plates with 10 μg/ml of peptide at a density of 2.5×10^6/ml for FVB/N-DR1 or 3.5×10^6/ml for C57BL/6-DR4. Cells were also cultured with an irrelevant peptide as a control. To measure cytokine production, culture supernatants were collected on day 2 and 5 of the culture for the measurement of cytokine by ELISA.
[…] CD8+ T cells were depleted from the cell suspension using anti-CD8+ antibody coupled with magnetic beads (Dynal, UK) as per the manufacturers instructions. Cells were then washed in PBS and resuspended at 5×10^5/ml in T cell medium. 100 μl of T cells was then added to all wells. Anti-DR antibody (L243) or isotype control were added to some wells to confirm the MHC specificity of the T-cell response. LPS-treated dendritic cells were harvested, washed and incubated in 1 ml of DC medium with the addition of 10 íg of peptide at 37° C. for 5 hours. After washing, 10^3 peptide-pulsed DC were added to the relevant wells of lymphocyte cultures in 50 íl media. These plates were then incubated for 3 days at 37° C. in a 5% CO2 in air-humidified atmosphere. Tritriated thymidine was then added to the culture and incubated again for 18 hours. Plates were harvested onto 96 Uni/Filter (Packard), the scintillation liquid (Microscint 0, Packard) was added and the plates were counted on a Top-Count counter (Packard). Results are expressed in counts per minute (cpm) and as a means of the triplicate wells. Statistical analysis was performed using unpaired Student's t test. […]

HLA-DRβ1*0101 = assay: Proliferation of splenocytes from immunised HLA-DR1 mice with peptide-pulsed BM-DC (tritiated thymidine); type: cell-based; details: responding/total mice, after re-stimulation in vitro with relevant peptide
Experimental: as §1, §2, §3
Splenocytes from immunised animals cultured for 6 days in the presence of 10 μg of the test peptide were harvested, washed and counted. CD8+ T cells were depleted from the cell suspension using anti-CD8+ antibody coupled with magnetic beads (Dynal, UK) as per the manufacturers instructions. Cells were then washed in PBS and resuspended at 5×10^5/ml in T cell medium. 100 μl of T cells was then added to all wells. Anti-DR antibody (L243) or isotype control were added to some wells to confirm the MHC specificity of the T-cell response. LPS-treated dendritic cells were harvested, washed and incubated in 1 ml of DC medium with the addition of 10 íg of peptide at 37° C. for 5 hours. After washing, 10^3 peptide-pulsed DC were added to the relevant wells of lymphocyte cultures in 50 íl media. […] Plates were harvested onto 96 Uni/Filter (Packard), the scintillation liquid (Microscint 0, Packard) was added and the plates were counted on a Top-Count counter (Packard). […]

IFN-γ [1] = assay: Cytokine production by splenocytes of immunised C57BL/6-DR4 mice, ELISA; type: cell-based; details: relevant versus irrelevant peptide
Experimental: as §3
(§4) Aliquots of supernatants were removed from CTL cultures on days 1 and 5 and on days 2 and 5 from CD4′ T cell cultures and stored at −20° C. until required. ELISA was used to quantitate concentrations of murine IFN-γ and IL-5 (R&D systems, UK).
We further investigated HLA-DR class-II restricted responses to PAP peptides that were predicted to bind to HLA-DR1 and HLA-DR4 according to the evidence-based computer assisted algorithm […]. The peptides displaying high binding scores for both HLA-DR alleles were selected and further studied (Table 1). C57BL/6-DR4 mice were immunised with these predicted HLA-DR-restricted PAP and the proliferative and IFN-γ response to peptide stimulation in vitro was monitored by proliferation assays and cytokine measurements. PAP. 64 and PAP.

IFN-γ [2] = assay: IFN-γ ELISPOT of rested CD8-depleted T cells with peptide-pulsed BM-DC; type: cell-based, mice; details: BM-DC pulsed with PAP.161 versus Flu peptide
IFN-γ [3] = assay: Cytokine production by splenocytes of immunised FVB/N-DR1 mice, ELISA; type: cell-based
Experimental: as §3, §4

HLA-A2*0201 = HLA-A2*0201 (Homo sapiens, UniProt P04439, D140Y/D185E/D98H/E176V/E277Q/G131W/G231S/I119V/I121R/I166T/I218V/L300P/L318F/N151K/N90K/P208A/P217A/Q86G/Q94H/R138H/R169H/T345S); type: cell-based; details: peptide at 100, 10 and 1 μM; compared with positive control influenza M1 peptide; three independent experiments
RMAS-HLA-A2 cells = assay: 51Chromium cytotoxicity assay of splenocytes from HLA-A2.1/Kb mice against peptide-pulsed RMAS cells; type: cell-based; details: for % cytoxicity at 50:1 ratio RMAS + irrel.: targets pulsed with irrelevant peptide
LNCaP cells = assay: 51Chromium cytotoxicity assay of splenocytes from PAP.135 immunised mice against LNCaP cells; type: cell-based, human; details: LNCaP express HLA-A2 and PAP
Experimental: (c): Cytotoxicity against LNCaP cells by splenocytes derived from PAP.135 immunised mice. Results are representative of 10 mice and 2 individual experiments.
(§5) LNCaP is a human prostate cancer cell-line known to express HLA-A2 and PAP. Cells were propagated in RPMI 1640 media (GibcoBRL, UK) supplemented with 10% foetal calf serum (BioWhittaker, Belgium), 100 U/ml penicillin with 100 μg/ml streptomycin (GibcoBRL, UK), 5 ng/ml hydrocortisone and 5 ng/ml testosterone (Sigma, USA). […] Cells were grown in suspension in tissue culture flasks containing RPMI 1640 (GibcoBRL, UK) with 10% foetal calf serum (FCS) (BioWhittaker, Belgium) and 1% L-glutamine supplement (GibcoBRL, UK).
Target cells were pulsed overnight with test peptide or an irrelevant HLA-A2 binding epitope and labelled for 1 hour with 1.85 MBq ^51Chromium. For cytotoxicity assays involving tumour cell-lines, cells were treated with 100 U/ml IFN-γ for 24 hours prior to ^51Chromium labelling. Target cells were washed and allowed to stand in CTL media for 1 hour before washing again. […] HLA-A2 dependence was determined by the addition of anti-HLA-A2 antibody (Serotec, UK) to some wells. […] Supernatants were harvested and analysed using a Top Count™ gamma counter (Can berra-Packard, USA). Specific lysis was determined as follows: […]

LCL cells = assay: 51Chromium cytotoxicity assay of splenocytes from PAP.135 immunised mice against LCL cells; type: cell-based, human; details: LCL express HLA-A2 but not PAP
Experimental: as §5
Target cells were pulsed overnight with test peptide or an irrelevant HLA-A2 binding epitope and labelled for 1 hour with 1.85 MBq ^51Chromium. For cytotoxicity assays involving tumour cell-lines, cells were treated with 100 U/ml IFN-γ for 24 hours prior to ^51Chromium labelling. Target cells were washed and allowed to stand in CTL media for 1 hour before washing again. Target cells and effector CTLs were co-incubated at various ratios in 96-well plates in a final volume of 200 μl for 4 hours at 37° C. HLA-A2 dependence was determined by the addition of anti-HLA-A2 antibody (Serotec, UK) to some wells. Maximum and spontaneous release of ^51Chromium was ascertained by incubating target cells with 2% SDS or media alone, respectively. Supernatants were harvested and analysed using a Top Count™ gamma counter (Can berra-Packard, USA). Specific lysis was determined as follows: […]

IFN-γ [4] = assay: IFN-γ release by splenocyte (CTL) cultures, ELISA; type: cell-based, mice
Experimental: After at least 7 and not more than 10 days, immunised animals were killed, and the spleens recovered into transport media. Spleens were gently macerated and flushed by injecting 10 ml “CTL culture media” (RPMI 1640, 1% L-glutamine, 10% FCS (PAA labs), 20 mM Hepes, 50 μM 2-mercaptoethanol, 50 U/ml penicillin, 500 U/ml streptomycin and 0.25 μg/ml fungizone) under pressure through a fine bore hypodermic needle introduced through the spleen capsule, thus facilitating the isolation of splenocytes. The remaining tissue was diced and digested for 1 hour at 37° C. using an enzyme cocktail (IMDM containing […] 2-ME, 100 U/ml penicillin+1000 U/ml streptomycin, 8 mg/ml collagenase and 1% DNAse). The flushed and digested cell populations were washed and pooled, and then seeded into 15 wells of a 24 well-plate at 5×10^6 cells/well in 2 ml of media containing 20 μg peptide. The test peptide was added to 12 wells, while 3 wells received an irrelevant class-I peptide as a control. Splenocyte cultures were incubated for 5 days at 37° C.
as §4
Figures represent the ratio of IFN-γ released by splenocytes stimulated in vitro by PAP.135 to IFN-γ released by splenocytes stimulated in vitro by an irrelevant HLA-A2*0201 CTL epitope. The mean results of 10 experiments using splenocytes derived from PAP.135-immunised mice are given, and 1 in which splenocytes derived from non-immunised (naive mice) were used.

Sequence | proliferative response to peptide-pulsed BM-DC (HLA-DRβ1*0401; 7 days in vitro stimulation, CD8+ T cells removed, rested 7 days) | effect of anti-HLA-DR antibody (L243) on proliferation (HLA-DRβ1*0401; not blocked by isotype control) | proliferation of splenocytes from immunised HLA-DR4 mice (HLA-DRβ1*0401; re-stimulated in vitro with peptide for 5 days) | number of HLA-DR4 mice whose splenocytes demonstrated specific proliferation (HLA-DRβ1*0401; responding/total mice, after re-stimulation in vitro with relevant peptide) | number of HLA-DR1 mice whose splenocytes demonstrated specific proliferation (HLA-DRβ1*0101) | IFN-γ production by splenocytes (IFN-γ [1]) | IFN-γ production, ELISPOT (IFN-γ [2]) | IFN-γ or IL-50 (cytokine) production of splenocytes (IFN-γ [3]) | binding to HLA-A2 (T2 cells) (HLA-A2*0201) | inhibition of peptide specific lysis by HLA-A2 blocking antibody (RMAS-HLA-A2 cells; PAP.135-pulsed targets, splenocytes from PAP.135 immunised mice, two separate experiments) | lysis of PAP.135 pulsed RMAS-HLA-A2 cells (RMAS-HLA-A2 cells; splenocytes from PAP.135 immunised mice) | % cytoxicity at 50:1 ratio RMAS + irrel. (RMAS-HLA-A2 cells; splenocytes from PAP.135-immunised mice, 50:1) | % cytoxicity at 50:1 ratio RMAS + PAP.135 (RMAS-HLA-A2 cells; splenocytes from naïve (non-immunised) mouse stimulated with PAP.135 in vitro, 50:1) [%] | % cytoxicity at 50:1 ratio RMAS + irrel. (RMAS-HLA-A2 cells; splenocytes from naïve (non-immunised) mouse, 50:1) [%] | lysis of PAP.135 pulsed RMAS-HLA-A2 cells (RMAS-HLA-A2 cells; splenocytes from non-immunised (naïve) mice stimulated by PAP.135 in vitro) | lysis of LNCaP cells (LNCaP cells) | lysis of LCL cells (LCL cells) | IFN-γ release by splenocytes stimulated in vitro (IFN-γ [4]; PAP.135-immunised mice, versus irrelevant epitope, day 5) | IFN-γ release by splenocytes stimulated in vitro (IFN-γ [4]; non-immunised (naïve) mice) | IFN-γ release (PAP.135:irrel.) (IFN-γ [4]; ratio, splenocytes from naïve (non-immunised) mouse)
CPRFQELESETLKSE (listed as Homo sapiens) [PAP.161] | Significant proliferation; also recorded: consistently confirmed; also recorded: responded specifically | blocked in the presence of HLA-DR antibody; also recorded: blocked by the addition of L243 antibody; also recorded: inhibited by the addition of L243 antibody; also recorded: blocked by the presence of L243 antibody | Specific proliferation | 6 out of 8 and 4/6 | 3 out of 6 and 3/6 | produced in large quantities | high amount of IFN-γ in peptide specific manner; also recorded: producing IFN-γ | no production of cytokines could be detected in high enough levels |  |  |  |  |  |  |  |  |  |  |  | 
ILLWQPIPV (listed as Homo sapiens) [PAP.135] |  |  |  |  |  |  |  |  | strong binding; also recorded: strongest HLA-A2 binding; also recorded: higher affinity to T2 cells | approximately 80% | lysed RMAS-HLA-A2 cells, pulsed with PAP.135 in a dose dependent manner; also recorded: highly cytotoxic | 2% and 7% and 9% and 4% and 1% and 5% and 3% | 13 | 11 | failed to demonstrate cytotoxicity; also recorded: unable to lyse target cells | dose-dependent lysis; also recorded: highly cytotoxic | not susceptible to lysis | significantly more IFN-γ; also recorded: significantly upregulated | independent of the peptide used for in vitro stimulation | 1.1
